# Experimental data taken from EP1247803A2, “Indolinone compounds suitable for modulation of protein kinases” (Sugen, Inc., priority 1996, dated 1998).
# Key:
# [1] = molecular target: PDGF-R (Homo sapiens, UniProt P09619); assay: PDGF-R ELISA; type: cell-based
# Excerpt: A PDGF-R ELISA is described in International Patent Publication No. WO 96/40116, published December 19, 1996 by Tang et al.
# [2] = molecular target: T1, FLK-1 receptor (Mus musculus, UniProt P35918); assay: FLK-1 ELISA (kinase activity of the FLK-1 receptor in FLK-1/NIH3T3 cells, VEGF stimulated); type: cell-based
# T1 construct: expressed in transfected cells; host or cells: NIH3T3 C7#3
# T1 sequence (P35918 20-1345): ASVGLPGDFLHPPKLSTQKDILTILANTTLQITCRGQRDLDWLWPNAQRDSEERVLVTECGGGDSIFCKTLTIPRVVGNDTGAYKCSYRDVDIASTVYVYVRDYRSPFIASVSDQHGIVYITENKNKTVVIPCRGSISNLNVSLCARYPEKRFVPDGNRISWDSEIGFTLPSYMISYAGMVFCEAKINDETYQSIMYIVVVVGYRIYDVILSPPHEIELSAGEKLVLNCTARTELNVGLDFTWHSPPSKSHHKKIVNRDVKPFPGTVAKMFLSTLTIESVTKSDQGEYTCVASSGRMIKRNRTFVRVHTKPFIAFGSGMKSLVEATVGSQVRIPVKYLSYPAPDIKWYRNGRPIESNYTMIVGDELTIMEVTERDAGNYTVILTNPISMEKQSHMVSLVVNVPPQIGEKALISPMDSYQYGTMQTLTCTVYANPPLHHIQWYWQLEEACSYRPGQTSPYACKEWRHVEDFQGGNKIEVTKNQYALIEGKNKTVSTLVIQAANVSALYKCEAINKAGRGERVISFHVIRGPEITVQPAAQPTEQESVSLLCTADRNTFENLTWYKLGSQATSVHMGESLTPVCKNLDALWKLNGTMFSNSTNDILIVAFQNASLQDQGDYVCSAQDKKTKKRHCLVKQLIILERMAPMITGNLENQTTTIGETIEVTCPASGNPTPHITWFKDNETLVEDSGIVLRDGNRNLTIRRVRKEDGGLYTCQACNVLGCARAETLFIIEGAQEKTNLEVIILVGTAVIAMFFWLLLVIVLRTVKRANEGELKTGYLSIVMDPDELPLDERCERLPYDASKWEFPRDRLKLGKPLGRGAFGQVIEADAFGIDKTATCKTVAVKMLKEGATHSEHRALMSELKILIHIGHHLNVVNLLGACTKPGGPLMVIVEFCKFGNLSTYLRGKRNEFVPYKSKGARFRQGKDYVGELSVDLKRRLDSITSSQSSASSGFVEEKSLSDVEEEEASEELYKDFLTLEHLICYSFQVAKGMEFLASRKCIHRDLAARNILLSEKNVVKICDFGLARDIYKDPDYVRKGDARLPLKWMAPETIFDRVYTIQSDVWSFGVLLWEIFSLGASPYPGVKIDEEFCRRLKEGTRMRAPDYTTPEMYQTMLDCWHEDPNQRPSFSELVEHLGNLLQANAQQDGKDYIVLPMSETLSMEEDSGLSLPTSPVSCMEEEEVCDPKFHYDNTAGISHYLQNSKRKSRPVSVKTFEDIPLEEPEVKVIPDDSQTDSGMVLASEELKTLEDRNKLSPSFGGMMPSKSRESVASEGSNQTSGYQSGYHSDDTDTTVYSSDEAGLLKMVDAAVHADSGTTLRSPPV
# Procedure, shortened: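 NIH3T3 C7#3 cells expressing FLK-1 were seeded at 25.000 cells/well, serum-starved overnight in 0.1% FBS, then treated with compound for two hours at 37°C (final DMSO 0.5%) before VEGF stimulation. Receptor was captured on anti-rabbit IgG-coated ELISA plates bearing affinity-purified anti-FLK-1 antiserum.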
# Sequence of PDGF-R (P09619 33-1106, species assumed): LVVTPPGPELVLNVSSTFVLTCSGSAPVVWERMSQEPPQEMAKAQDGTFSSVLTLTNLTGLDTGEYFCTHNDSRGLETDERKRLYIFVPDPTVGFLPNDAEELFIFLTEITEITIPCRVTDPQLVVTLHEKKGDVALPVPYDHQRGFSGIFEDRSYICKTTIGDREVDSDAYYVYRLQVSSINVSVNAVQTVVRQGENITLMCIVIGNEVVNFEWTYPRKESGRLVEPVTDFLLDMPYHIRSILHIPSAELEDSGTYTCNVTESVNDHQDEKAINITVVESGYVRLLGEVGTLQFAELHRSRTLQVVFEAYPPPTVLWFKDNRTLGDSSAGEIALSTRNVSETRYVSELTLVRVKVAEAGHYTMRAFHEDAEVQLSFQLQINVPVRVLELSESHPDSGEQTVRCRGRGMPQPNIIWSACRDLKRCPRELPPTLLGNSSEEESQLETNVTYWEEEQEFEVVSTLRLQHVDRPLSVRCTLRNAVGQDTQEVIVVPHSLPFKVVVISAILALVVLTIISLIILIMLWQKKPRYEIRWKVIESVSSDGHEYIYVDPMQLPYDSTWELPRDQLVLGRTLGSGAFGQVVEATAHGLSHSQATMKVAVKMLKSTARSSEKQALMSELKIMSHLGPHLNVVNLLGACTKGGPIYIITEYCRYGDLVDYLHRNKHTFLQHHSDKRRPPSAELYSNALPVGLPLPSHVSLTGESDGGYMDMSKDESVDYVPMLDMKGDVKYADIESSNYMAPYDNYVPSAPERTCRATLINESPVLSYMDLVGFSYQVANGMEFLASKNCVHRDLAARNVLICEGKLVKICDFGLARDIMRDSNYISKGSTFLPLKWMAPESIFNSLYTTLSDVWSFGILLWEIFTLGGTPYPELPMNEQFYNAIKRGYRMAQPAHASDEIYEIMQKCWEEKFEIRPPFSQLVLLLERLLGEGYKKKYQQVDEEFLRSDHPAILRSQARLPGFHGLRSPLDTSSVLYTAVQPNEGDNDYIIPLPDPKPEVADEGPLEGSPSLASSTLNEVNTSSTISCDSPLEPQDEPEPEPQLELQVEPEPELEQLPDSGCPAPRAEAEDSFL
SMILES,PDGF Kinase %Inhibition [1],Fik Kinase %Inhibition [2]
O=C1Nc2ccc(I)cc2C1=Cc1cc(O)c2c(c1O)CCCC2 [10726/B07],-59.5%,-36.5%
Cc1cc(C=C2C(=O)Nc3ccc(S(=O)(=O)Nc4ccc(C(F)(F)F)cc4)cc32)[nH]n1 [10725/E05],27.5%,-0.2%
CNS(=O)(=O)c1ccc2c(c1)C(=Cc1ccc(C)o1)C(=O)N2 [10725/D04],12.2%,3.6%
O=C1Nc2ccc(S(=O)(=O)Nc3ccc(C(F)(F)F)cc3)cc2C1=Cc1ccc(N2CCOCC2)cc1 [10725/E08],48.6%,12.1%
Cc1ccc(C=C2C(=O)Nc3ccc(CCCl)cc32)o1 [10725/G04],-8.9%,6.1%
COc1ccc(Br)c(C=C2C(=O)Nc3ccc(S(=O)(=O)N4CCOCC4)cc32)c1O [10725/F03],-27.1%,4.3%
CCOc1ccccc1C=C1C(=O)Nc2ccc(CCCl)cc21 [10717/G02],,14.9%
COC(=O)Cc1c(Cl)[nH]c(C=C2C(=O)Nc3ccc(S(=O)(=O)Nc4ccc(C(F)(F)F)cc4)cc32)c1C(=O)OC [10725/E09],37.5%,7.0%
O=C1Nc2ccccc2C1=C1C(=O)Nc2c(Br)cc(Br)cc21 [10726/A09],16.4%,-4.5%
Cc1cc(C=C2C(=O)Nc3ccc(Br)c(C)c32)[nH]n1 [10725/C05],28.9%,-37.0%
CNS(=O)(=O)c1ccc2c(c1)C(=Cc1cc(C)n[nH]1)C(=O)N2 [10725/D05],10.7%,2.3%
COc1ccc(C=C2C(=O)Nc3ccc(I)cc32)cc1 [10726/B11],23.3%,7.4%
O=CN1CCN(c2ccc(C=C3C(=O)Nc4ccc(S(=O)(=O)Nc5ccc(C(F)(F)F)cc5)cc43)cc2)CC1 [10725/E07],28.9%,9.7%
O=C1Nc2ccc(F)cc2C1=C1C(=O)Nc2c(Br)cc(Br)cc21 [10726/A08],10.7%,-4.0%
Cc1c(Br)ccc2c1C(=Cc1c(Br)cnn1-c1ccc(Cl)cc1)C(=O)N2 [10725/C10],38.5%,8.7%
O=C1Nc2ccc(S(=O)(=O)N3CCOCC3)cc2C1=Cc1sccc1Br [10725/F02],-15.1%,5.8%
O=C1Nc2ccc(I)cc2C1=Cc1ccc(Br)o1 [10726/B05],27.1%,13.2%
COC(=O)Cc1c(Cl)[nH]c(C=C2C(=O)Nc3ccc(S(=O)(=O)N4CCOCC4)cc32)c1C(=O)OC [10725/F09],28.4%,6.8%
O=CN1CCN(c2ccc(C=C3C(=O)Nc4ccc(CCCl)cc43)cc2)CC1 [10725/G07],23.7%,4.8%
Cc1c(Br)ccc2c1C(=Cc1cc(O)c3c(c1O)CCCC3)C(=O)N2 [10726/C07],-67.7%,-17.0%
O=C1Nc2ccc(S(=O)(=O)Nc3ccc(C(F)(F)F)cc3)cc2C1=Cc1c(Br)cnn1-c1ccc(Cl)cc1 [10725/E10],28.4%,9.3%

SMILES,PDGF Kinase %Inhibition [1],Fik Kinase %Inhibition [2]
COc1cccc(O)c1C=C1C(=O)Nc2ccc(S(=O)(=O)N3CCOCC3)cc21 [10717/F10],,"-4,4%"
O=C1Nc2ccc(CCCl)cc2C1=Cc1sccc1Br [10725/G02],-11.8%,-3.7%
COc1ccc(Br)c(C=C2C(=O)Nc3ccc(CCCl)cc32)c1O [10725/G03],-6.5%,-6.9%
COC(=O)Cc1c(Cl)[nH]c(C=C2C(=O)Nc3ccc(Br)c(C)c32)c1C(=O)OC [10725/C09],34.7%,11.2%
COC(=O)Cc1c(Cl)[nH]c(C=C2C(=O)Nc3ccc(CCCl)cc32)c1C(=O)OC [10725/G09],43.8%,15.2%
O=CN1CCN(c2ccc(C=C3C(=O)Nc4ccc(S(=O)(=O)N5CCOCC5)cc43)cc2)CC1 [10725/F07],15.0%,6.9%
O=C1Nc2ccc(S(=O)(=O)N3CCOCC3)cc2C1=Cc1ccc(N2CCOCC2)cc1 [10725/F08],28.9%,8.9%
O=C1Nc2ccc(S(=O)(=O)N3CCOCC3)cc2C1=Cc1ccc(Br)cc1 [10717/F08],,-0.7%
CCc1ccc(C=C2C(=O)Nc3c(Br)cc(Br)cc32)s1 [10726/A10],8.1%,3.7%
CNS(=O)(=O)c1ccc2c(c1)C(=Cc1c(Br)cnn1-c1ccc(Cl)cc1)C(=O)N2 [10725/D10],43.8%,9.0%
O=C1Nc2ccc(CCCl)cc2C1=Cc1c(Br)cnn1-c1ccc(Cl)cc1 [10725/G10],44.7%,11.1%
CNS(=O)(=O)c1ccc2c(c1)C(=Cc1c(O)cc(C)cc1OC)C(=O)N2 [10725/D06],21.7%,-0.5%
COc1cc(C)cc(O)c1C=C1C(=O)Nc2ccc(S(=O)(=O)N3CCOCC3)cc21 [10725/F06],14.1%,-1.0%
CCc1ccc(C=C2C(=O)Nc3ccc(I)cc32)s1 [10726/B10],6.2%,3.7%
Cc1[nH]c(C=C2C(=O)Nc3ccc(S(=O)(=O)N4CCOCC4)cc32)c(Br)c1Br [10717/F11],,1.4%
Cc1c(Br)ccc2c1C(=Cc1c[nH]cn1)C(=O)N2 [10725/C11],80.7%,104.5%
Cc1cc(C=C2C(=O)Nc3c(Br)cc(Br)cc32)cc(C(C)(C)C)c1O [10726/A04],44.2%,7.6%
Cc1c(Br)ccc2c1C(=Cc1sccc1Br)C(=O)N2 [10725/C02],-5.1%,7.0%
Cc1cn(C)cc1C=C1C(=O)Nc2c(Br)cc(Br)cc21 [10726/A06],22.1%,-4.6%
CCOC(=O)c1[nH]c(C=C2C(=O)Nc3ccc(Br)c(C)c32)c(C(=O)OC)c1C [10726/C03],28.4%,24.9%
O=C1Nc2ccc(S(=O)(=O)N3CCOCC3)cc2C1=Cc1c[nH]cn1 [10725/F11],20.3%,9.9%

SMILES,PDGF Kinase %Inhibition [1],Fik Kinase %Inhibition [2]
COc1cc(C)cc(O)c1C=C1C(=O)Nc2ccc(Br)c(C)c21 [10725/C06],46.6%,-9.3%
O=C1Nc2ccc(F)cc2C1=C1C(=O)Nc2ccc(I)cc21 [10726/B08],24.6%,12.2%
Cc1cn(C)cc1C=C1C(=O)Nc2ccc(Br)c(C)c21 [10726/C06],36.0%,23.8%
CNS(=O)(=O)c1ccc2c(c1)C(=Cc1c[nH]cn1)C(=O)N2 [10725/D11],23.2%,13.6%
Cc1ccc(C=C2C(=O)Nc3ccc(S(=O)(=O)N4CCOCC4)cc32)o1 [10725/F04],-4.6%,-6.9%
CNS(=O)(=O)c1ccc2c(c1)C(=Cc1sccc1Br)C(=O)N2 [10725/D02],-8.4%,-3.6%
O=C1Nc2c(Br)cc(Br)cc2C1=Cc1ccc(F)cc1 [10717/A05],,-2.6%
CNS(=O)(=O)c1ccc2c(c1)C(=Cc1ccc(N3CCOCC3)cc1)C(=O)N2 [10725/D08],38.5%,1.8%
Cc1cc(C=C2C(=O)Nc3ccc(S(=O)(=O)N4CCOCC4)cc32)[nH]n1 [10725/F05],-5.6%,-0.8%
Cc1cc(C=C2C(=O)Nc3ccc(Br)c(C)c32)cc(C(C)(C)C)c1O [10726/C04],36.6%,12.3%
Cc1c(Br)ccc2c1C(=Cc1ccc(Br)o1)C(=O)N2 [10726/C05],25.2%,4.0%
CNS(=O)(=O)c1ccc2c(c1)C(=Cc1[nH]c(Cl)c(CC(=O)OC)c1C(=O)OC)C(=O)N2 [10725/D09],35.6%,-0.9%
O=C1Nc2c(Br)cc(Br)cc2C1=Cc1ccc(Br)o1 [10726/A05],22.1%,-7.1%
O=C1Nc2c(Br)cc(Br)cc2C1=Cc1cc(O)c2c(c1O)CCCC2 [10726/A07],-36.8%,-72.3%
CNS(=O)(=O)c1ccc2c(c1)C(=Cc1ccc(N3CCN(C=O)CC3)cc1)C(=O)N2 [10725/D07],18.4%,2.6%
O=C1Nc2ccc(S(=O)(=O)Nc3ccc(C(F)(F)F)cc3)cc2C1=Cc1sccc1Br [10725/E02],-8.9%,-5.6%
Cc1c(Br)ccc2c1C(=Cc1ccc(N3CCN(C=O)CC3)cc1)C(=O)N2 [10725/C07],107.0%,65.0%
O=C1Nc2ccc(S(=O)(=O)N3CCOCC3)cc2C1=Cc1ccc[nH]1 [10717/F09],,-13.3%
O=C1Nc2ccc(CCCl)cc2C1=Cc1cccs1 [10717/G03],,1.8%
Cc1ccc(C=C2C(=O)Nc3ccc(S(=O)(=O)N4CCOCC4)cc32)s1 [10717/F07],,2.0%
